Measured values reported in article PMC12646587, “Advanced cardiotoxicity profiling using field potential imaging with UHD-CMOS-MEA in human iPSC-derived cardiomyocytes” (Toxicological Sciences, 2025).

How the values were obtained:
[1] = test system: human iPSC-derived cardiomyocytes; experiment: FPI with UHD-CMOS-MEA, chronic exposure up to 96 h; type: cell-based
Description: (§1) Recordings were performed at a sampling rate of 2 kHz, with a 2-min recording duration per condition. Data acquisition was controlled via proprietary software (Sony Semiconductor Solutions), and all raw signals were stored for offline analysis. All experiments were conducted in a humidified environment at 37 °C with 5% CO2, ensuring physiological conditions during both drug exposure and recording.
(§2) Spikes from hiPSC-derived cardiomyocytes were initially detected at each electrode using a voltage threshold of ±100 µV via BinViewer software (SCREEN Holdings Co., Ltd, Japan). The resulting spike data were then processed using a custom MATLAB (MathWorks, Natick, MA) script to perform beat detection. Firing count histograms were generated using a bin size of 0.5 ms, and peak detection within these histograms identified the timing and propagation duration of beats across the electrode array. For each electrode, the maximum spike amplitude and its corresponding peak timing were calculated to generate heat maps of field potential amplitude and activation timing.
(§3) For mechanism-of-action classification and the cardiotoxicity assessment of doxorubicin, a one-way multivariate analysis of variance (MANOVA) was employed, using principal component (PC)1 and PC2 scores as dependent variables to evaluate significant differences between drug mechanism groups. Statistical significance was determined at P < 0.05.
To validate the chronic cardiotoxicity assessment using CMOS-MEA measurements, FPI was performed following long-term exposure to doxorubicin.

mouse cardiomyocytes = test system: mouse cardiomyocytes; set-up: method as in Lin et al. 2024; settings: ref Lin et al. 2024; cited from earlier work
rat cardiomyocytes = settings: ref Sag et al. 2011, Ikeda et al. 2019; cited from earlier work
[2] = test system: Engineered heart tissues derived from human iPSCs; set-up: method as in Arefin et al. 2023; settings: ref Arefin et al. 2023, cited from earlier work
hiPSC-CMs [3] = experiment: Conventional MEA, chronic exposure; type: cell-based, human; settings: 0.1 μM
Description: Furthermore, a direct comparison was conducted between the UHD-CMOS-MEA and conventional MEA systems under chronic exposure to 0.1 μM doxorubicin.

[4] = test system: human iPSC-derived cardiomyocytes; experiment: PCA and MANOVA of beat parameters after chronic exposure; type: cell-based; settings: 0.1 µM, relative to all DMSO time points
Description: as §3
PCA was conducted to integrate multiple parameter changes into a comprehensive index of cardiotoxicity. The PCA included 6 selected parameters: IBI, Amplitude, Amplitude STV, Area, Velocity, and Velocity STV (Table 7). The first 2 PCs accounted for a cumulative contribution of 69.4%. […] For statistical analysis of cardiotoxicity across time points, PCA plots were categorized into 15 groups based on concentration and exposure duration. MANOVA was performed to compare each group against the DMSO 0.5 h reference (Table 8). No significant differences were detected among DMSO time points.

monolayer hiPSC-CMs = settings: ref Maddah et al. 2020; cited from earlier work
NaV = settings: ref Yao and Tseng 1997; cited from earlier work
CaV = settings: ref Yao and Tseng 1997; cited from earlier work
cardiomyocytes [5] = settings: FPDc10 (10% prolongation of FPDc); ref Nozaki et al. 2017; cited from earlier work
[6] = test system: human iPSC-derived cardiomyocytes; experiment: PCA of beat parameters: cardiotoxicity risk and mechanism classification; type: cell-based
Description: Each parameter set was evaluated for its ability to separate cardiotoxic and non-cardiotoxic compounds while maintaining minimal variance among negative controls. […] To assess cardiotoxicity, PCA scores of test compounds were plotted in the PC space, and their positions were compared with the SD-defined zones of the negative control group. Risk levels were classified as follows: Low risk (within 1 SD), medium risk (between 1 and 2 SD), and high risk (beyond 2 SD). Dose-dependent cardiotoxicity potential was estimated based on displacement from the negative control cluster.
To establish a risk classification framework, the standard deviation (SD) range of negative control compounds in PCA space was used to define 3 zones: Within the SD range (low risk), between 1 and 2 SD (medium risk), and beyond 2 SD (high risk) (Fig. 6B). Risk levels derived from PCA distribution were compared with IC50 and Cmax values reported for each compound and associated ion channels (Table 5).

[7] = test system: human iPSC-derived cardiomyocytes; experiment: Field potential imaging (FPI) with UHD-CMOS-MEA, acute drug treatment; type: cell-based
Description: Cryopreserved iCell Cardiomyocytes (FUJIFILM Cellular Dynamics, Inc.) were handled according to the supplier’s instructions. Cells were thawed in a 37 °C water bath for approximately 3 min and resuspended in iCell Thawing Medium to prepare a cell suspension at a final concentration of 1 × 10^7 cells/ml. A total of 10 µl of the cell suspension (100,000 cells per chip) was seeded directly onto the fibronectin-coated electrode area of each chip. Chips were incubated at 37 °C for 1 h to allow cell attachment, after which 1 ml of maintenance medium was gently added. […] Thereafter, medium exchanges were performed twice weekly by replacing half the medium volume.
Compounds were dissolved in culture medium containing 0.1% DMSO and administered cumulatively at increasing concentrations. Drug solutions were applied directly to the culture wells, and measurements were initiated 30 min after administration. […] All recordings were performed under spontaneous beating conditions, with no external pacing applied.
as §1
as §2, with “timing. […]” for “timing.”

hERG = settings: read-out: IC50 hERG; ref Busch et al. 1998; cited from earlier work
[8] = ref Lee et al. 2025; cited from earlier work
hiPSC-CMs [9] = experiment: Conventional MEA recording (16-electrode Axion Maestro), acute exposure; type: cell-based, human; settings: acute
Description: To enable comparison with the UHD-CMOS-MEA recordings, conventional extracellular field potential recordings were performed using 16-electrode MEA plates on a commercially available MEA system (Axion Maestro, Axion Biosystems), in accordance with the general principles of the CiPA initiative. hiPSC-CMs were cultured and maintained on the MEA plates under spontaneous beating conditions at 37 °C. Recordings were conducted after 10 to 14 DIV, and data acquisition and beat detection were performed using the built-in algorithms of the AxIS software (Axion Biosystems), without the use of external pacing. […] Each compound was applied under acute exposure conditions, and field potential recordings were obtained for 30 min following drug administration.
To evaluate the measurement capabilities of a conventional MEA system, the same set of 7 compounds was tested using the 16-electrode Axion Maestro platform.

IKs = test system: IKs; set-up: method as in Davies et al. 1996; settings: ref Davies et al. 1996; cited from earlier work
cardiomyocytes [10] = settings: CTD90 ↑; ref Lu et al. 2019; cited from earlier work
[11] = 0.1 μM, prolonged exposure (48 h)
[12] = acute, statistically significant change vs before

COc1cccc2c1C(=O)c1c(O)c3c(c(O)c1C2=O)C[C@@](O)(C(=O)CO)C[C@@H]3O[C@H]1C[C@H](N)[C@H](O)[C@H](C)O1 [Doxorubicin]
beat area ([1]; 0.03 µM, after 24 h): significant decreases
peak potential ([1]; 0.03 µM, after 24 h): significant decreases
beat rate ([1]; 0.03 µM, chronic exposure): did not significantly alter
changes in conventional parameters such as beat rate and IBI ([1]; 0.1 µM): evident only after 72 h
exposure time at which a decline in conduction velocity was detected ([1]; 0.1 μM, CMOS-MEA): 24 h
beat area ([1]; 0.1 µM, beginning at 48 h): reductions
peak potential ([1]; 0.1 µM, beginning at 48 h): reductions
conduction velocity [1, 11]: decrease
temporal variability metrics (CV and STV) [1, 11]: increase
STV of peak potential ([1]; 0.1 µM, within 0.5 h): decreased
concentration at which cardiotoxicity was detected ([1]; within 24 h, UHD-CMOS-MEA): 30 nM
concentration giving impaired Ca^2+ handling and reduced contractility (mouse cardiomyocytes): 1000 nM
concentrations giving Ca^2+ handling abnormalities, apoptosis and contractile dysfunction (rat cardiomyocytes): only at micromolar concentrations
effect on contractile force ([2]; 125 or 500 nM): no observable effects
concentration giving reduced contractile force ([2]; after 48 h of exposure): 1000 nM
exposure time at which a reduction in spike amplitude began to be detected (hiPSC-CMs [3]): 48 h
MANOVA of PCA groups vs DMSO [4]: significant differences were observed after 24 h
concentration at which structural changes were detected (monolayer hiPSC-CMs): exceeding 0.3 μM

CN1CCN(CCCCN2C(=O)CN(/N=C/c3ccc(-c4ccc(Cl)cc4)o3)C2=O)CC1 [Azimilide]
IC50 (NaV): 19 µM
IC50 (CaV): 17.8 µM
MEA assay (cardiomyocytes [5]): 0.129 ([Nozaki et al. 2017]) (FPDc10) µM
FPI PCA (concentration at which changes were detected) [6]: 1 µM
IBI (interbeat interval) [7, 12]: increased and ↑
IBI STV [7, 12]: significantly elevated and ↑
BR (beat rate) ([7]; acute, statistically significant change vs before, arrows = direction, – = none): decreased and ↓
FPI (concentration at which changes were detected) ([7]; changed parameters in brackets in each cell): 1 (BR, IBI, IBI STV) μM
IC50 (hERG): 5.2 µM
Cmax Free [8]: 0.07 ([Lee et al. 2025]) μM
IBI (hiPSC-CMs [9]): prolongation
beat frequency (hiPSC-CMs [9]): consistent reductions
field potential (spike) amplitude (hiPSC-CMs [9]): decreasing trend
magnitude of change in propagation area (hiPSC-CMs [9]): less than 5%
propagation area (hiPSC-CMs [9]): statistically significant reduction
IC50 (IKs): 0.7 µM
HCA assay (cardiomyocytes [10]): 1.0 ([Lu et al. 2019]) (CTD90 ↑) µM
